pEC50: −log10 of the molar value. ≈ marks a conversion by molar mass, not a printed value. Where two headings read alike, the source gives them in different places. Some results are limits rather than exact numbers.

Assay [1] has as its system Dirofilaria immitis third-stage larvae. Put plainly: In Vitro Assay 4: Dirofilaria immitis (DIROIM L4) larval motility. The format is cell-based. The note with it: 72 h.
In a further assay the target is D. immitis Slo-1 (Dirofilaria immitis, UniProt I0DFK5). The experiment in a line: In Vitro Assay 2: D. immitis Slo-1, membrane potential measurement in recombinant CHO cell line. In kind it is cell-based.
D. immitis Slo-1, sequence (I0DFK5 1-1119): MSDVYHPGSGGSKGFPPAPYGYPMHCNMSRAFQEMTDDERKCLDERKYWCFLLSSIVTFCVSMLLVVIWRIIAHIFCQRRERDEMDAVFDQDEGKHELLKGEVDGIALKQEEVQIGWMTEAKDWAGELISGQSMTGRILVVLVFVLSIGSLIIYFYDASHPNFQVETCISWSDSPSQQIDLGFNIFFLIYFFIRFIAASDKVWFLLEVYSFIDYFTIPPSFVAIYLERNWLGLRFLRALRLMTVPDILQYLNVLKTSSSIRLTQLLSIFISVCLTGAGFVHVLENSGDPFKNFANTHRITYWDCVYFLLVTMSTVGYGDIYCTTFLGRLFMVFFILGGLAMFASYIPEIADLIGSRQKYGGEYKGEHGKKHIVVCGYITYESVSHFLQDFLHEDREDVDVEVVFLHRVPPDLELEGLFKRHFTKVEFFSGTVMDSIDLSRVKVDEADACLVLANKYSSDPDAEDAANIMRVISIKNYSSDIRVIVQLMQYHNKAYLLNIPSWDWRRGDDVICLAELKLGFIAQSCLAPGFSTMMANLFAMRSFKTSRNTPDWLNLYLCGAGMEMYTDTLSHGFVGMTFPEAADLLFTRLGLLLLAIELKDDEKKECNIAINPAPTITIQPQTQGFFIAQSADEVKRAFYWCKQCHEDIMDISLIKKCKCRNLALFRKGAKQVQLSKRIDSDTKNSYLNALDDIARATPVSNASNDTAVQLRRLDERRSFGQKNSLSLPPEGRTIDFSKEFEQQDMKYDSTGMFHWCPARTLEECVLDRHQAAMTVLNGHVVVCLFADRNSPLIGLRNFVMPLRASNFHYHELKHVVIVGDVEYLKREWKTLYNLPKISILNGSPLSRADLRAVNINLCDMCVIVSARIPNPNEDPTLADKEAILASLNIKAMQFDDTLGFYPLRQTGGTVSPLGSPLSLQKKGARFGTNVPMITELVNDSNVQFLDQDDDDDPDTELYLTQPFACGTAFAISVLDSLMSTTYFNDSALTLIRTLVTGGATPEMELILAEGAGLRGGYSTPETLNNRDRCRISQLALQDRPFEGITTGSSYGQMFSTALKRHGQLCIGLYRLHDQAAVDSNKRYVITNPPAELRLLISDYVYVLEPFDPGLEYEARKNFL
The target in another assay is C. elegans Slo-1a (Caenorhabditis elegans, UniProt Q95V25).
C. elegans Slo-1a, sequence (Q95V25 whole entry): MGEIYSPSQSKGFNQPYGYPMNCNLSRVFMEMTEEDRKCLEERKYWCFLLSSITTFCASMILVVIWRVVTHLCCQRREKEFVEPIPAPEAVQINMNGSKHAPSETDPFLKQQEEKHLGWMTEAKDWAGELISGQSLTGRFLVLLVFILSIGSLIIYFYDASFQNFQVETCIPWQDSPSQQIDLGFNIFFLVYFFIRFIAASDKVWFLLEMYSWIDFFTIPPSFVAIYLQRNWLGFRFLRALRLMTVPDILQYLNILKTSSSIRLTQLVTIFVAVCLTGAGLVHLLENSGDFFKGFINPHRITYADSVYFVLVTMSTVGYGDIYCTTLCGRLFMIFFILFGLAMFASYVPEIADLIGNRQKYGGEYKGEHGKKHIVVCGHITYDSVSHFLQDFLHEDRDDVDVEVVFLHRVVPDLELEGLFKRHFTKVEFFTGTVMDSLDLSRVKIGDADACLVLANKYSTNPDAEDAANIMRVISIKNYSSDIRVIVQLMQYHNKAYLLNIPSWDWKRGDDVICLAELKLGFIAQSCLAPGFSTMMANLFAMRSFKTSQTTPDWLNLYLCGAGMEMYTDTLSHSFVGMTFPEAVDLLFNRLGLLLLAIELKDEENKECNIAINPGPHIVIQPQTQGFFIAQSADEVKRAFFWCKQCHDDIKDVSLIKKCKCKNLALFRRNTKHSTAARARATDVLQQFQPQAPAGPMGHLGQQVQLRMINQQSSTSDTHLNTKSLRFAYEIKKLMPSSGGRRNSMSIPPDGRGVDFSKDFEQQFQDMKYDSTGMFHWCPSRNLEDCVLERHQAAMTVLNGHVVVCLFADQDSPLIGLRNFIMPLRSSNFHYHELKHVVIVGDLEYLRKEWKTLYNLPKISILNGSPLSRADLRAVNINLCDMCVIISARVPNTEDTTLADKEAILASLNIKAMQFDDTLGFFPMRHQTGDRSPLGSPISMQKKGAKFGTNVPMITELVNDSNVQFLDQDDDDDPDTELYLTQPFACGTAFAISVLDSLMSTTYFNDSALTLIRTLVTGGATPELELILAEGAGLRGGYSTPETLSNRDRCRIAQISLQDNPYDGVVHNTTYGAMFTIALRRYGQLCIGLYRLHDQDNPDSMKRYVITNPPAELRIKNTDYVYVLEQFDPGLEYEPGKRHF
For assay [2], the system named is Adult Nippostrongylus brasiliensis. The experiment in a line: In Vitro Assay 5: Nippostrongylus brasiliensis (NIPOBR), acetylcholine esterase readout. In kind it is cell-based. On the procedure:
In Vitro Assay 5: Nippostrongylus Brasiliensis (NIPOBR)
Adult Nippostrongylus brasiliensis were washed with saline buffer containing 100 U/ml penicillin, 0.1 mg/ml streptomycin and 2.5 μg/ml amphotericin B. Test compounds were dissolved in DMSO and worms were incubated in medium in a final concentration of 10 μg/ml (10 ppm), 1 μg/ml (1 ppm) and 0.1 μg/ml (0.1 ppm) respectively. An aliquot of the medium was used to determine the acetylcholine esterase activity in comparison to a negative control. The principle of measuring acetylcholine esterase as readout for anthelmintic activity was described in Rapson et al (1986) and Rapson et al (1987).
Based on the evaluation of a wide concentration range, concentration-response curves as well as EC50-values were calculated.

Assay [3] concerns Dirofilaria immitis microfilariae. The experiment in a line: In Vitro Assay 3: Dirofilaria immitis microfilariae (DIROIM L1) motility. In kind it is cell-based. The note with it: 72 h.
The mark [4] stands for this setting: acetylcholine esterase activity in medium vs negative control, adult worms, read-out: EC50.

Description for C. elegans Slo-1a: For transfection with plasmid DNA to express C. elegans Slo-1a (accession number AAL28102) CHO cells were passaged to 40% confluence before adding the transfection solution to the cell culture. The transfection solution included 300 μL OptiMEM (Life Technologies, Nr.: 31985), 2 μL (=6 μg) of plasmid DNA containing the C. elegans Slo-1a gene and 9 μL FugeneHD (Promega, Nr.: E2311), and was added to the cells prior to incubation for 48 hours at 37° C., 5% CO2. The transfection medium was exchanged for the selection medium which contains additional G418 (2 mg/ml, Invitrogen, Nr.: 10131) and the cells were seeded into 384 well plates (300 cells/well). After a few weeks, the remaining surviving cells were tested with a voltage sensitive dye (Membrane Potential Assay Kit, Molecular Devices Nr.: R8034) for K+ channel expression. Positive cell clones were purified by the limited dilution technique. For this the clone with the highest and most robust signal in the voltage sensitive dye assay was further subcloned (incubated) in 384 well plates (0.7 cells/well) to obtain clonal purity. This generated a final stable CHO cell line expressing the C. elegans Slo-1a.
Cell culture conditions Cells were cultured at 37° C. and 5% CO2 in MEMalpha with Gutamax I (Invitrogen, Nr.: 32571), supplemented with 10% (v/v) heat inactivated fetal bovine serum (Invitrogen, Nr.: 10500), G418 (1 mg/ml, Invitrogen, Nr.: 10131). Cells were detached using Accutase (Sigma, Nr.: A6964).
Membrane Potential Measurements
Laboratory compound testing was performed on 384-well microtiter plates (MTPs, Greiner, Nr.: 781092). 8000 cells/well were plated onto 384-well MTPs and cultured for 20 to 24 hours at 37° C. and 5% CO2. After removal of the cell culture medium, the cells were washed once with tyrode (150 mM NaCl, 0.3 mM KCl, 2 mM CaCl2, 1 m M MgCl2, 0.8 mM NaH2PO4, 5 mM Glucose, 28 mM Hepes, pH 7.4) and then loaded with the voltage sensitive dye of the Membrane Potential Assay Kit diluted in tyrode for 1 h at room temperature. After starting the measurement of fluorescence using a FLIPR Tetra (Molecular Devices, Exc. 510-545 nm, Emm. 565-625 nm), test compounds were added followed by the addition of KCl tyrode (final assay concentration: 70 mM KCl, 2 mM CaCl2, 1 mM MgCl2, 0.8 mM NaH2PO4, 5 mM Glucose, 28 mM Hepes, pH 7.4, including the voltage sensitive dye). The measurement was completed after 7 minutes.
EC50 values were calculated using a four-parameter plotting by the Scilligence ELN/Regmol Software Tool, Bioassay.

As for `CC(C)c1c(C(=O)NN2CCOc3ccccc32)cnc2c1nnn2-c1cc(F)cc(F)c1F` [Example 14.1, N-(2,3-Dihydro-4H-benzo[b][1,4]oxazin-4-yl)-7-isopropyl-3-(2,3,5-trifluorophenyl)-3H-[1,2,3]triazolo[4,5-b]pyridine-6-carboxamide], the values for the EC50 in assay [1], in assay [2] (setting [4]) and in assay [3] were above 1 µg/mL, above 1 µg/mL and below 0.1 µg/mL, respectively. In addition, the pEC50 at D. immitis Slo-1 and at C. elegans Slo-1a was below 6.00 in each case.

For `CC(C)c1c(C(=O)NN2CCOc3ccccc32)ccc2c1nnn2-c1cc(F)cc(F)c1F` [Example 16.1, N-(2,3-Dihydro-4H-benzo[b][1,4]oxazin-4-yl)-4-isopropyl-1-(2,3,5-trifluorophenyl)-1H-benzo[d][1,2,3]triazole-5-carboxamide], the EC50 in assay [1], in assay [2] (setting [4]) and in assay [3] was above 1 µg/mL each time. For the same compound, the pEC50 on D. immitis Slo-1 and on C. elegans Slo-1a was below 6.00 in each case.

`CC(C)(O)c1c(C(=O)NN2CCOc3ccccc32)sc2c(-c3cc(F)cc(F)c3F)c(F)cnc12` [Example 6.1, N-(2,3-Dihydro-4H-benzo[b][1,4]oxazin-4-yl)-6-fluoro-3-(2-hydroxypropan-2-yl)-7-(2,3,5-trifluorophenyl)thieno[3,2-b]pyridine-2-carboxamide]: the EC50 in assay [1], in assay [2] and in assay [3] was below 0.1 µg/mL each time. The pEC50 at D. immitis Slo-1 and on C. elegans Slo-1a was above 7.00 each time.

On to `CC(C)n1c(C(=O)NN2CCOc3ccccc32)nc2c(-c3cc(F)cc(F)c3F)nccc21` [Example 12.1, N-(2,3-Dihydro-4H-benzo[b][1,4]oxazin-4-yl)-1-isopropyl-4-(2,3,5-trifluorophenyl)-1H-imidazo[4,5-c]pyridine-2-carboxamide], for which the figures for the EC50 in assay [1], in assay [2] (setting [4]) and in assay [3] were below 0.1 µg/mL, above 1 µg/mL and 0.1 to 1 µg/mL (≈ 0.214 to 2.14 µM), respectively. Also, the pEC50 on D. immitis Slo-1 and on C. elegans Slo-1a was below 6.00 in each case.

Turning to `CC(C)c1c(C(=O)NN2CCOc3ccccc32)sc2c(-c3cc(F)cc(F)c3F)cccc12` [Example 1.1, N-(2,3-dihydro-1,4-benzoxazin-4-yl)-3-isopropyl-7-(2,3,5-trifluorophenyl)benzo-thiophene-2-carboxamide], the EC50 in assay [1] was below 0.1 µg/mL; in assay [2] (setting [4]), 0.1 to 1 µg/mL (≈ 0.207 to 2.07 µM); in assay [3], below 0.1 µg/mL. Further, the pEC50 on D. immitis Slo-1 is below 6.00; on C. elegans Slo-1a, above 7.00.

As to `CC(C)c1c(C(=O)NN2CCOc3ccccc32)n(C)c2c(-c3cc(F)cc(F)c3F)cccc12` [Example 17.2, N-(2,3-Dihydro-4H-benzo[b][1,4]oxazin-4-yl)-3-isopropyl-1-methyl-7-(2,3,5-trifluoro-phenyl)-1H-indole-2-carboxamide], the EC50 in assay [1] and in assay [2] (setting [4]) was above 1 µg/mL each time. In addition, the pEC50 at D. immitis Slo-1 and on C. elegans Slo-1a was below 6.00 each time.

As to `CC(C)c1c(C(=O)NN2CCOc3ccccc32)cnc2c(-c3cc(F)cc(F)c3F)ncn12` [Example 11.1, N-(2,3-Dihydro-4H-benzo[b][1,4]oxazin-4-yl)-4-isopropyl-8-(2,3,5-trifluoro-phenyl)-imidazo[1,5-a]pyrimidine-3-carboxamide], the EC50 is below 0.1 µg/mL in assay [1], above 1 µg/mL in assay [2] (setting [4]) and 0.1 to 1 µg/mL (≈ 0.214 to 2.14 µM) in assay [3]. Moreover, the results for the pEC50 at D. immitis Slo-1 and at C. elegans Slo-1a were below 6.00 and 6.00 to 7.00, respectively.

`CC(C)c1c(C(=O)NN2CCOc3ccccc32)[nH]c2c(-c3cc(F)cc(F)c3F)cccc12` [Example 17.1, N-(2,3-dihydro-1,4-benzoxazin-4-yl)-3-(1-methylethyl)-7-[2,3,5-tris(fluoranyl)-phenyl]-1H-indole-2-carboxamide]: the EC50 was above 1 µg/mL in assay [1], above 1 µg/mL in assay [2] (setting [4]) and below 0.1 µg/mL in assay [3]. The pEC50 on D. immitis Slo-1 and on C. elegans Slo-1a was below 6.00 each time.

With `O=C(NN1CCOc2ccccc21)c1sc2c(-c3cc(F)cc(F)c3F)ccnc2c1N1CCOCC1` [Example 6.8, N-(2,3-Dihydro-4H-benzo[b][1,4]oxazin-4-yl)-3-morpholino-7-(2,3,5-trifluoro-phenyl)thieno[3,2-b]pyridine-2-carboxamide], the EC50 in assay [1] was below 0.1 µg/mL; in assay [2] (setting [4]), above 1 µg/mL; in assay [3], below 0.1 µg/mL. Also, the values for the pEC50 on D. immitis Slo-1 and on C. elegans Slo-1a were 6.00 to 7.00 and above 7.00, respectively.

`Cc1nn2c(C(C)C)c(C(=O)NN3CCOc4ccccc43)nnc2c1-c1c(F)cccc1F` [Example 5.1, 8-(2,6-Difluorophenyl)-N-(2,3-dihydro-1,4-benzoxazin-4-yl)-4-isopropyl-7-methyl-pyrazolo[5,1-c][1,2,4]triazine-3-carboxamide]: the results for the EC50 in assay [1], in assay [2] (setting [4]) and in assay [3] were 0.1 to 1 µg/mL (≈ 0.215 to 2.15 µM), above 1 µg/mL and below 0.1 µg/mL, respectively. In addition, the pEC50 on D. immitis Slo-1 was below 6.00; on C. elegans Slo-1a, 6.00 to 7.00.

Turning to `CC(C)c1c(C(=O)NN2CCOc3ccccc32)nc2c(-c3cc(F)cc(F)c3F)cccn12` [Example 7.1, N-(2,3-dihydro-4H-benzo[b][1,4]oxazin-4-yl)-3-isopropyl-8-(2,3,5-trifluoro-phenyl)imidazo[1,2-a]pyridine-2-carboxamide], the EC50 in assay [1] is 0.1 to 1 µg/mL (≈ 0.214 to 2.14 µM); in assay [2] (setting [4]), above 1 µg/mL; in assay [3], 0.1 to 1 µg/mL (≈ 0.214 to 2.14 µM). In addition, the pEC50 on D. immitis Slo-1 and at C. elegans Slo-1a was below 6.00 in each case.

Consider `CC(C)c1c(C(=O)NN2CCOc3ccccc32)sc2c(-c3cc(F)cc(F)c3F)nccc12` [Example 2.2, N-(2,3-Dihydro-1,4-benzoxazin-4-yl)-3-isopropyl-7-(2,3,5-trifluorophenyl)-thieno[2,3-c]pyridine-2-carboxamide], for which the EC50 is below 0.1 µg/mL in assay [1], 0.1 to 1 µg/mL (≈ 0.207 to 2.07 µM) in assay [2] (setting [4]) and below 0.1 µg/mL in assay [3]. For the same compound, the pEC50 at D. immitis Slo-1 was 6.00 to 7.00; on C. elegans Slo-1a, above 7.00.

For the compound `CC(C)n1c(C(=O)NN2CCOc3ccccc32)nc2c(-c3cc(F)cc(F)c3F)cccc21` [Example 13.1, N-(2,3-Dihydro-4H-benzo[b][1,4]oxazin-4-yl)-1-isopropyl-4-(2,3,5-trifluorophenyl)-1H-benzo[d]imidazole-2-carboxamide], the EC50 in assay [1] is 0.1 to 1 µg/mL (≈ 0.214 to 2.14 µM); in assay [2] (setting [4]), above 1 µg/mL; in assay [3], 0.1 to 1 µg/mL (≈ 0.214 to 2.14 µM). In addition, the negative logarithm of the EC50 (pEC50) on D. immitis Slo-1 was below 6.00; at C. elegans Slo-1a, 6.00 to 7.00.

In the case of `CC(C)c1c(C(=O)NN2CCOc3ccccc32)nc2c(-c3cc(F)cc(F)c3F)nccn12` [Example 8.1, N-(2,3-Dihydro-4H-benzo[b][1,4]oxazin-4-yl)-3-isopropyl-8-(2,3,5-trifluorophenyl)-imidazo[1,2-a]pyrazine-2-carboxamide], the figures for the EC50 in assay [1], in assay [2] (setting [4]) and in assay [3] were 0.1 to 1 µg/mL (≈ 0.214 to 2.14 µM), above 1 µg/mL and 0.1 to 1 µg/mL (≈ 0.214 to 2.14 µM), respectively. The pEC50 on D. immitis Slo-1 and on C. elegans Slo-1a was below 6.00 throughout.

Take `CN(C)c1c(C(=O)NN2CCOc3ccccc32)cnc2c1ccn2-c1cc(F)cc(F)c1F` [Example 18.1, N-(2,3-Dihydro-4H-benzo[b][1,4]oxazin-4-yl)-4-(dimethylamino)-1-(2,3,5-trifluorophenyl)-1H-pyrrolo[2,3-b]pyridine-5-carboxamide]: the EC50 in assay [1] is below 0.1 µg/mL; in assay [2] (setting [4]), above 1 µg/mL. Further, the negative-log EC50 (pEC50) at D. immitis Slo-1 is below 6.00; at C. elegans Slo-1a, 6.00 to 7.00.

On to `CC(C)c1c(C(=O)NN2CCOc3ccccc32)sc2c(-c3cc(F)cc(F)c3F)c(F)cnc12` [Example 6.3, N-(2,3-Dihydro-4H-benzo[b][1,4]oxazin-4-yl)-6-fluoro-3-isopropyl-7-(2,3,5-trifluoro-phenyl)thieno[3,2-b]pyridine-2-carboxamide], for which the EC50 in assay [1], in assay [2] and in assay [3] was below 0.1 µg/mL throughout. The pEC50 at D. immitis Slo-1 and on C. elegans Slo-1a was above 7.00 in each case.

As for `Cc1nn2c(C(C)(C)O)c(C(=O)NN3CCOc4ccccc43)sc2c1-c1cc(F)cc(F)c1F` [Example 4.3, N-(2,3-Dihydro-1,4-benzoxazin-4-yl)-3-(2-hydroxypropan-2-yl)-6-methyl-7-(2,3,5-trifluorophenyl)pyrazolo [3,2-b][1,3]thiazole-2-carboxamide], the values for the EC50 in assay [1], in assay [2] (setting [4]) and in assay [3] were below 0.1 µg/mL, 0.1 to 1 µg/mL (≈ 0.199 to 1.99 µM) and below 0.1 µg/mL, respectively. In addition, the pEC50 at D. immitis Slo-1 was 6.00 to 7.00; at C. elegans Slo-1a, above 7.00.

Compound `CC(C)c1c(C(=O)NN2CCOc3ccccc32)sc2c(-c3cc(F)cc(F)c3F)ccnc12` [6,7] had an EC50 in assay [2] below 0.1 µg/mL.

With `CC(C)c1c(C(=O)NN2CCOc3ccccc32)sc2c(-c3cc(F)cc(F)c3F)ccnc12` [Example 6.7, N-(2,3-Dihydro-4H-benzo[b][1,4]oxazin-4-yl)-3-isopropyl-7-(2,3,5-trifluorophenyl)-thieno [3,2-b]pyridine-2-carboxamide], the EC50 in assay [1] and in assay [3] was below 0.1 µg/mL each time. The pEC50 at D. immitis Slo-1 and on C. elegans Slo-1a was above 7.00 throughout.

As to `CC(C)c1c(C(=O)NN2CCOc3ccccc32)oc2c(-c3cc(F)cc(F)c3F)cccc12` [Example 19.1, N-(2,3-Dihydro-1,4-benzoxazin-4-yl)-3-(1-methylethyl)-7-[2,3,5-tris(fluoranyl)-phenyl]benzofuran-2-carboxamide], the EC50 was below 0.1 µg/mL in assay [1] and 0.1 to 1 µg/mL (≈ 0.214 to 2.14 µM) in assay [2] (setting [4]).

One may read the EC50 as the concentration at which the effect is half-maximal. For orientation: pEC50 means the negative decadic logarithm of the EC50, by convention in mol/L.

The record behind these values is US20240059680A1, “N-(2,3-DIHYDRO-1,4-BENZOXAZIN-4-YL)-3-ISOPROPYL-7-(2,3,5-TRIFLUOROPHENYL)BENZO-THIOPHENE-2-CARBOXAMIDE DERIVATIVES AND SIMILAR COMPOUNDS FOR THE TREATMENT OF HEARTWORM INFECTIONS” (ELANCO TIERGESUNDHEIT AG, priority 2020, published 2024).
